Test results as given in ChEMBL document CHEMBL1201862, “PubChem BioAssay data set” (2004).
Calls of active or inactive are those of the source.

Columns and labels:
Fatty acid synthase [1] = molecular target: T1, Fatty acid synthase (Homo sapiens, UniProt P49327); assay: FAS thioesterase domain inhibitors, dose response, biochemical, kinetic fluorescence intensity (AID 624326); format: functional;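 also: rate of fluorescence rise from hydrolysis of a fluorogenic O-methyl fluorescein ester substrate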
[2] = Fluorescence-based cell-based high throughput dose response assay for inhibitors of the interaction of nucleotide-binding oligomerization domain containing 2 (NOD2) and the receptor-interacting serine-threonine kinase 2 (RIPK2).; format: functional, Homo sapiens; settings: Homo sapiens
Beta Lactamase = Beta Lactamase (Pseudomonas aeruginosa, UniProt Q932Y6); assay: beta-lactamase reporter inhibitor potency, dose response, artefact control for NOD2-RIPK2 interaction inhibitor project, BLA reporter cells, FRET fluorescence (AID 651552); format: functional, cell-based
Fatty acid synthase [3] = molecular target: T1, Fatty acid synthase; assay: FAS thioesterase domain inhibitors, dose response, biochemical, endpoint fluorescence intensity, uHTS hits (AID 624327); format: functional;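 also: fluorescence from hydrolysis of an O-methyl fluorescein acyl ester substrate by the enzyme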
[4] = molecular target: T2, High affinity choline transporter 1 (Homo sapiens, UniProt Q9GZV3); assay: CHT inhibitors, dose response, cell-based, 10-point CRC, membrane potential dye (AID 588401); format: functional;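 also: membrane potential dye fluorescence of choline-evoked depolarization via CHT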
T2 sequence (Q9GZV3 whole entry): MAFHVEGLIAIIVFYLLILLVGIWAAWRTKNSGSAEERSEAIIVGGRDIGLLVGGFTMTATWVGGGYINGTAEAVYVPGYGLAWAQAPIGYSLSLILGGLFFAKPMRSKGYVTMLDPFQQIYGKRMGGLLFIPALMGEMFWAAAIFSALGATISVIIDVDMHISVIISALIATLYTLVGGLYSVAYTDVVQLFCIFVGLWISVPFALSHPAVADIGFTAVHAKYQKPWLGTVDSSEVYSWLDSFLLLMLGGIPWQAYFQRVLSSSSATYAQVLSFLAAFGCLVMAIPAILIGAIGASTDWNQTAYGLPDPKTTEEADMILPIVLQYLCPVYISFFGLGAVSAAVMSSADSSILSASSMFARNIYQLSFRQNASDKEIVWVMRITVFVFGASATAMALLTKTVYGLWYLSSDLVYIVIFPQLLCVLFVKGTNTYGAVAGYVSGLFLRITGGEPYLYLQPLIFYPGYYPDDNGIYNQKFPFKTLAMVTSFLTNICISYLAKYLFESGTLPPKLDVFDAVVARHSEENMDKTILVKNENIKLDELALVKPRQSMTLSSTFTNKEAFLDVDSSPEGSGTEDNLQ

[5] = molecular target: T3, Short transient receptor potential channel 4 (Mus musculus, UniProt Q9QUQ5); assay: mouse TRPC4 channel inhibitors, dose response, cell-based, HEK293 TRPC4/mu-opioid, Fluo-4 calcium (AID 434942); format: functional;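 also: potency of inhibitors blocking the TRPC4 calcium response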
T3 sequence (Q9QUQ5 whole entry): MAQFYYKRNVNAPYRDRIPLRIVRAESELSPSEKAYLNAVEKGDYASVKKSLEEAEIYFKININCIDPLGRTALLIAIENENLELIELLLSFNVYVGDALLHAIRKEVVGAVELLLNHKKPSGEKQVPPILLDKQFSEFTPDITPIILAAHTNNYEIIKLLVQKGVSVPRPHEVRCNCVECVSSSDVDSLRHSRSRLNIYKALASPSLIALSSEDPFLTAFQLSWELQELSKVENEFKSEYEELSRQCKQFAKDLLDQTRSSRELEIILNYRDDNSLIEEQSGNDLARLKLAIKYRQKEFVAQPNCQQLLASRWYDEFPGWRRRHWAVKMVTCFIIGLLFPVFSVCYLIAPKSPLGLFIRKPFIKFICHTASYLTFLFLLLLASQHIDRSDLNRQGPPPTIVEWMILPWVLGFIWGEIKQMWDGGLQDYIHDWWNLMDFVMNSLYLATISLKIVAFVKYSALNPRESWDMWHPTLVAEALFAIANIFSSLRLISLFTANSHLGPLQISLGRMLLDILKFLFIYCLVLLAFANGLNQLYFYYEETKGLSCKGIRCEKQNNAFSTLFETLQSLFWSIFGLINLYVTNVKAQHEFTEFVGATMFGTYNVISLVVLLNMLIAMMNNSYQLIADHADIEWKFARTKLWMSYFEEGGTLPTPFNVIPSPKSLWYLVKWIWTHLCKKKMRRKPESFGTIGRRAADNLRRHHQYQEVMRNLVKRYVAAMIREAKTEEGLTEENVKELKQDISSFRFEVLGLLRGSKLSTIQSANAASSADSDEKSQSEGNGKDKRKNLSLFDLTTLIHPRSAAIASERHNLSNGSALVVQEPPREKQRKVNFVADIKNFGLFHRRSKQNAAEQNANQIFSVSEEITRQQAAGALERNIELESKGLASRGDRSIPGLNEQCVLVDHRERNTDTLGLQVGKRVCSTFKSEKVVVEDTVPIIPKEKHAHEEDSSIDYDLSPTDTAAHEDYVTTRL

[6] = molecular target: T2, High affinity choline transporter 1; assay: CHT inhibitors, dose response, cell-based, 5-point CRC, membrane potential dye (AID 504840); format: functional
[7] = molecular target: T4, Low molecular weight phosphotyrosine protein phosphatase (Homo sapiens, UniProt P24666); format: functional; settings: read-out: IC50_Mean
T4 sequence (P24666 whole entry): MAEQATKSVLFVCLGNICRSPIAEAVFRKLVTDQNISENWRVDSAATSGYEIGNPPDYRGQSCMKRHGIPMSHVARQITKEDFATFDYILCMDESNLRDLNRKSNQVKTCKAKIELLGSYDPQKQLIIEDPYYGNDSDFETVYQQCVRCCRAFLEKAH

[8] = molecular target: T4, Low molecular weight phosphotyrosine protein phosphatase; format: functional; settings: read-out: IC50_Mean; remark: listed apart in the source
[9] = molecular target: Photoreceptor-specific nuclear receptor (Homo sapiens, UniProt Q9Y5X4); format: functional, cell-based;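 also: CHO-S cells with Gal4-NCOR and VP16-NR2E3 two-hybrid luciferase reporter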
[10] = molecular target: T5, Calpain-2 catalytic subunit (Sus scrofa, UniProt P43367); assay: pig calpain II inhibitor potency, dose response, biochemical, fluorogenic peptide substrate (AID 1420); format: functional
T5 sequence (P43367 whole entry): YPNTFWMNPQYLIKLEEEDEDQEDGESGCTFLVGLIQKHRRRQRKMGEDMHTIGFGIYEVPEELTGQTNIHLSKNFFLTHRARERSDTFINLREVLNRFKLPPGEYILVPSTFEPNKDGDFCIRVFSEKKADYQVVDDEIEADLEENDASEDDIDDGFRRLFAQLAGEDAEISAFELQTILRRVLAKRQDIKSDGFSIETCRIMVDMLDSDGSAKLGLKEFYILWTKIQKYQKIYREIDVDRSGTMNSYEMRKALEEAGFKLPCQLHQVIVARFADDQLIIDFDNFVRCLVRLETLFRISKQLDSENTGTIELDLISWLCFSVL

[11] = molecular target: Hepatocyte nuclear factor 4-alpha (Homo sapiens, UniProt P41235); format: functional, cell-based;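 also: biochemical luminescence-based dose-response counterscreen measuring inhibition of HNF4 dimerization, run alongside a screen for blockers of ABHD5–perilipin-5 interaction; split luciferase complementation of HNF4 fusion proteins in cell lysate measuring dimerization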
[12] = molecular target: T6, RNA-binding protein pos-1 (Caenorhabditis elegans, UniProt G5EF15); assay: inhibitors of POS-1/mex-3 RNA binding, dose response, biochemical, fluorescence polarization (AID 1964);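 also: purified POS-1 fused to maltose binding protein made in E. coli; potency of compounds blocking POS-1 binding to fluorescent RNA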
T6 sequence (G5EF15 whole entry): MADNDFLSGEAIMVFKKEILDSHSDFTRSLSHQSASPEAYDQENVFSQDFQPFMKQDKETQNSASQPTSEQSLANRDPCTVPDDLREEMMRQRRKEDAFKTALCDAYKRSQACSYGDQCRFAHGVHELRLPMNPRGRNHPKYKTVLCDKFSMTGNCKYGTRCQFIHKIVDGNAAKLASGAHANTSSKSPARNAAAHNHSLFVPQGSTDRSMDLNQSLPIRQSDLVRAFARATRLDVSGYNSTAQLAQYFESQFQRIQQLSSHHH

H4 = assay: Luminescence Cell-Based Dose Response HTS to Identify Activators of 5'UTR Stem-Loop Driven Prion Protein mRNA Translation in H4 Neuroglioblastoma Cells. [Related pubchem assays: 1829 (Project Summary), 1814 (Primary HTS)]; format: functional; settings: Homo sapiens
[13] = molecular target: T7, Sentrin-specific protease 1 (Homo sapiens, UniProt Q9P0U3); assay: potency of human SENP1 inhibitors, dose response, biochemical, kinetic FRET (AID 651697); format: functional; settings: read-out: IC50_Mean
T7 sequence (Q9P0U3 whole entry): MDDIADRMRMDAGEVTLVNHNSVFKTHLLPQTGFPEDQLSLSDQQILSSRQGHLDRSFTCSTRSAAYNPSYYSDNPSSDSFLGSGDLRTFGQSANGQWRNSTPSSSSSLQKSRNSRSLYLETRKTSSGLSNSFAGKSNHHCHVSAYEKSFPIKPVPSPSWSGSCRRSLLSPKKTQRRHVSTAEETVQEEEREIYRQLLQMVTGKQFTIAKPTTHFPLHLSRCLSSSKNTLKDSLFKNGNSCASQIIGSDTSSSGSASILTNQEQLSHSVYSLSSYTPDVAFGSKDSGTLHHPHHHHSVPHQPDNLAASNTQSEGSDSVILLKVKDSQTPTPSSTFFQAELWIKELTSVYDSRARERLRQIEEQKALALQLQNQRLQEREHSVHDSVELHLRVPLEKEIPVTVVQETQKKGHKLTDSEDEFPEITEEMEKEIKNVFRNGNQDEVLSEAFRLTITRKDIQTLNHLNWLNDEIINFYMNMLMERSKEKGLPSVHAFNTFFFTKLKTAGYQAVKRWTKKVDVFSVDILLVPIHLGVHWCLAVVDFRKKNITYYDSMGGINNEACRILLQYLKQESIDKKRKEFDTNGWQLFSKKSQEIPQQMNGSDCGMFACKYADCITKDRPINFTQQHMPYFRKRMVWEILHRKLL

[14] = molecular target: T8, Zinc finger protein mex-5 (Caenorhabditis elegans, UniProt Q9XUB2); assay: MEX-5/TCR-2 RNA interaction inhibitors, dose response, biochemical, C. elegans, fluorescence polarization (AID 1960)
T8 sequence (Q9XUB2 whole entry): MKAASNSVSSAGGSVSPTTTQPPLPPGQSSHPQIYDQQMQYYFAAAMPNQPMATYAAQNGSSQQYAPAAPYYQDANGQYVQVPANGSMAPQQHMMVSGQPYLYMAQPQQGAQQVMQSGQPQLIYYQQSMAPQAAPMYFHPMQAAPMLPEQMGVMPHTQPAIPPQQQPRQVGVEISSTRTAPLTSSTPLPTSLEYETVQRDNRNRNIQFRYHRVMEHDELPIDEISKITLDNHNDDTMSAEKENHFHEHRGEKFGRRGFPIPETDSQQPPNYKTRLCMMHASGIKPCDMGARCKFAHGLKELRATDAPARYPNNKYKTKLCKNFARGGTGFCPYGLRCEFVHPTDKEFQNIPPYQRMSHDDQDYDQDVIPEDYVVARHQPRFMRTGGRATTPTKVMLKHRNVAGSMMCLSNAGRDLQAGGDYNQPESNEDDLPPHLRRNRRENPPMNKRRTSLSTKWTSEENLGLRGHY

[15] = Luminescence Cell-Based Dose Response HTS to Identify Activators of Luciferase Translation or Activity in H4 […] Cells. [Related pubchem assays: 1829 (Project Summary), 1814 (Primary HTS)]; format: functional
[16] = Luminescence Cell-Based Dose Confirmation HTS to Identify Activators of 5'UTR Stem-Loop Driven Alpha-Synuclein mRNA Translation in H4 Neuroglioblastoma Cells. [Related pubchem assays: 1829 (Project Summary), 1814 (Primary HTS)]; format: functional
[17] = molecular target: Ras and Rab interactor 1/Tyrosine-protein kinase ABL1 (Homo sapiens, UniProt P00519+Q13671); format: functional;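 also: biochemical TR-FRET dose-response test measuring inhibition of binding between Rin1 and Abl proteins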
INS1 = assay: beta cell apoptosis inhibitors, cytokine rescue, dose response, luminescence, retest (AID 449756); format: functional, cell-based; settings: Rattus norvegicus;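 also: cell death triggered by IL-1 beta plus TNF-alpha plus IFN-gamma mixture; protective hits raise ATP signal compared with cytokine alone wells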
[18] = insulin promoter down-regulators in MIN6 cells, imaging, high-content screening, mouse beta cells (AID 1628); format: functional
[19] = cytotoxicity in MIN6 insulinoma cells, dose response, cytotoxicity control, cell-based, mouse insulinoma (AID 2122); format: functional;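 also: confirmatory high-throughput counterscreen run to flag cytotoxic compounds; mouse MIN-6 beta cells carrying an insulin promoter eGFP reporter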

T1 sequence (P49327 whole entry, the tested form may be a part): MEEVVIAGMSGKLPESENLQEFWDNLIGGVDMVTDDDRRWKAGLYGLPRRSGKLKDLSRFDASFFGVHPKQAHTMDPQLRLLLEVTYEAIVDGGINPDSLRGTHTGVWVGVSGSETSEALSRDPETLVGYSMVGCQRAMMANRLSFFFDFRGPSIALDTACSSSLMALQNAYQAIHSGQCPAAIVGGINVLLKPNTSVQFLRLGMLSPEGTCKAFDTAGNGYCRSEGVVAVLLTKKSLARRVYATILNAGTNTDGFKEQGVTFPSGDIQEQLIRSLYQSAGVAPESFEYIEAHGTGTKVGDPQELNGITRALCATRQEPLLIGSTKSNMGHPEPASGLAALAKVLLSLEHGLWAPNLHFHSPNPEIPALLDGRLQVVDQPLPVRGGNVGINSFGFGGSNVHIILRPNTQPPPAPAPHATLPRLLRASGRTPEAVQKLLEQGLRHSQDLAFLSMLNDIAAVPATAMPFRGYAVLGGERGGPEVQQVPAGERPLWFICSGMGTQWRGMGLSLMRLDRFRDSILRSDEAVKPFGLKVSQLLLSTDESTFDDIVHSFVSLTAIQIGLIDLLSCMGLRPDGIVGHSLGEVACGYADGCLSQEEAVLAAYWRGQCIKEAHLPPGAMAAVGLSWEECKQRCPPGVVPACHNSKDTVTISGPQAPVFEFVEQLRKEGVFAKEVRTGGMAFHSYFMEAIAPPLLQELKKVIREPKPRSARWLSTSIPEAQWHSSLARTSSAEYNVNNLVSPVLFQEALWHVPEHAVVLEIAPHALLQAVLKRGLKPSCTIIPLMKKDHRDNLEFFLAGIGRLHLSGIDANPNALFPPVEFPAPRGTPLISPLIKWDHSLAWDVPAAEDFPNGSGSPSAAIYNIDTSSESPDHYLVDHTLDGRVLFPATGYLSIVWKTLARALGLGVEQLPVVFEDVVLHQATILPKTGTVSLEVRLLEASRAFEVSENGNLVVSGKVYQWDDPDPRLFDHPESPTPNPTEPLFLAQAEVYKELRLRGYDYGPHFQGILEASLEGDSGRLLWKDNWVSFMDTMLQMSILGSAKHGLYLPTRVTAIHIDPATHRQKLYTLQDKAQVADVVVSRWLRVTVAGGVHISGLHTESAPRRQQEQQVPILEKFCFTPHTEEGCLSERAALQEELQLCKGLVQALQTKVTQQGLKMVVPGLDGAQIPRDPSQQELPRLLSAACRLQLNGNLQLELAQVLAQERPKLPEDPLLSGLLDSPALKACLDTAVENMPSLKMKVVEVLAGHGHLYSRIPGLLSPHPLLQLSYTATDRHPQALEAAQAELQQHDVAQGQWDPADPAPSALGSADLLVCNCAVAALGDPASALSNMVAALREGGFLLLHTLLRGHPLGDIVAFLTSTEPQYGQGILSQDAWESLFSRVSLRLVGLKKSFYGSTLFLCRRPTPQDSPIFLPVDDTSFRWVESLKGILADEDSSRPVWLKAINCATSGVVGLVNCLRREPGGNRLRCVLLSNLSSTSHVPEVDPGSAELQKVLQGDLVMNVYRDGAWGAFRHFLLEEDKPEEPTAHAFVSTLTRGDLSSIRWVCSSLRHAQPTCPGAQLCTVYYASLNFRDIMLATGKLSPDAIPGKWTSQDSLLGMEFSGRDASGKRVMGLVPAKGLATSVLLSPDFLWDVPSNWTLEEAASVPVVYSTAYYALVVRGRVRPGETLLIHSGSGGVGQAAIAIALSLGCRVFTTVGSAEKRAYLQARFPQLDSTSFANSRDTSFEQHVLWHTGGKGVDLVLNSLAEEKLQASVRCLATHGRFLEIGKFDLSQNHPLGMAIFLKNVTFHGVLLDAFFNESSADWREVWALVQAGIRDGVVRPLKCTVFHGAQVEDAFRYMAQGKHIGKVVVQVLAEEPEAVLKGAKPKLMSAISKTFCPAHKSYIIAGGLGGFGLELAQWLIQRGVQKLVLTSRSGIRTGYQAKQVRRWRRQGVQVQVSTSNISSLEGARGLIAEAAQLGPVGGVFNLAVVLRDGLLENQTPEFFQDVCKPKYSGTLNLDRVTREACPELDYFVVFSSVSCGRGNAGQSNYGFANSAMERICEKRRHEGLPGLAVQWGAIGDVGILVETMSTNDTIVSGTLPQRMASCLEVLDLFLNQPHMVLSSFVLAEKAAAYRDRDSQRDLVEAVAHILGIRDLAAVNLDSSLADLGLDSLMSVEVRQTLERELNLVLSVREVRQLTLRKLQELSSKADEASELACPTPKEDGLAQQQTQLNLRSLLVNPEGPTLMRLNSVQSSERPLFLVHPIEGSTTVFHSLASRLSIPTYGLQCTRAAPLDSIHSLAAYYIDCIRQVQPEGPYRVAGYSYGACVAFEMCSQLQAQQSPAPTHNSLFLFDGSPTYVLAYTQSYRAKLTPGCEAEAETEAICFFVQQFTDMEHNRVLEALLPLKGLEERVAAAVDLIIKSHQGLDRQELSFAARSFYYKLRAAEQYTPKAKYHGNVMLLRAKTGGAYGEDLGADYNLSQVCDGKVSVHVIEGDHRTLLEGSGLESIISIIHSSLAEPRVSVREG
Sequence of Beta Lactamase (Q932Y6 whole entry, the tested form may be a part): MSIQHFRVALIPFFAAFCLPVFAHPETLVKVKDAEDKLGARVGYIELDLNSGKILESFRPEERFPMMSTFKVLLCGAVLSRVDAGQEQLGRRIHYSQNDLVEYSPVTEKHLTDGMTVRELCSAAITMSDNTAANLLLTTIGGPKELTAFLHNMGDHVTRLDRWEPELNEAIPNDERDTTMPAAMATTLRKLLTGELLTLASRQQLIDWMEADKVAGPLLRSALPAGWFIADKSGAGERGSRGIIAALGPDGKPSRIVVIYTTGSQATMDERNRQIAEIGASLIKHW
Sequence of Photoreceptor-specific nuclear receptor (Q9Y5X4 whole entry, the tested form may be a part): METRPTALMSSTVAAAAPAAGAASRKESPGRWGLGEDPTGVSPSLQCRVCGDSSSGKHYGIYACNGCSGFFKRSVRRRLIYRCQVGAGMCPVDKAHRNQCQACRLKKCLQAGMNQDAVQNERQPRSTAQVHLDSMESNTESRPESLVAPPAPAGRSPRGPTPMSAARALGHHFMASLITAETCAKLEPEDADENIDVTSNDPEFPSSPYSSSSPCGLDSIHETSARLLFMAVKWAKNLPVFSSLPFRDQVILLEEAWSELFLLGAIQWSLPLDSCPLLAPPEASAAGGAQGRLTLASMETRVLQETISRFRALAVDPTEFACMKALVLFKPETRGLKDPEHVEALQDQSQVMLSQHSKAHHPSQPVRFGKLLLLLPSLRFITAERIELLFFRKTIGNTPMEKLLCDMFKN
Sequence of Hepatocyte nuclear factor 4-alpha (P41235 whole entry, the tested form may be a part): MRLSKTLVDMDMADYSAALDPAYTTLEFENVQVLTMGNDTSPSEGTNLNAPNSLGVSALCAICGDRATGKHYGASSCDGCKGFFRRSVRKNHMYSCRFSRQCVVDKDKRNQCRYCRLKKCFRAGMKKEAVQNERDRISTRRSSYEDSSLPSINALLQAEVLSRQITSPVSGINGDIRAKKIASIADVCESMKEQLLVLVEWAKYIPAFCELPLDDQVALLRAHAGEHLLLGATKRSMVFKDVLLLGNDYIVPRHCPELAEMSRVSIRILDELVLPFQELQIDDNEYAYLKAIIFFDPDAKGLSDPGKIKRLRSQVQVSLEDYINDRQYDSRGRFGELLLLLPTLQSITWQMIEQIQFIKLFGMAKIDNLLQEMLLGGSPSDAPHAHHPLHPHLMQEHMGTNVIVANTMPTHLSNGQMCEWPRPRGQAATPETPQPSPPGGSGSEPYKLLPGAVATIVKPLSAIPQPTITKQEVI

Q: Which results are given for `CCOC(=O)[C@]12Cc3cc(Cl)ccc3[C@H]1N(C1CCCCC1)C(=O)c1ccccc12`?
A: IC50 (Fatty acid synthase [1]): 4.57 µM (active); IC50 [2]: 1.45 µM (active); IC50 (Beta Lactamase): 19.9 µM (inactive); IC50 (Fatty acid synthase [3]): 6.4 µM (active)

Q: With `CC1CCCCN1CCCNC(=O)c1nn(C)c2c1CSc1ccccc1-2` (configuration not stated) as the compound, how does the IC50 [4] read?
A: 10.6 µM (active)

Q: And the EC50 [5]?
A: 4.22 µM (active)

Q: And the IC50 [6]?
A: 5.6 µM (active)

Q: What does the source list for `COc1cccc(Nc2c(Nc3cccc(OC)c3)c(=O)c2=O)c1`?
A: IC50 [7]: 10.4 µM (active); IC50 [8]: 18.4 µM (active)

Q: With `CCCCCc1c(-c2ccc(OC)c(OC)c2)ncn1CCc1ccccc1OC` as the compound, how does the IC50 [9] read?
A: 7.43 µM (active)

Q: With `O=c1c(Cl)c(N2CCN(c3ccc(F)cc3)CC2)cnn1C12CC3CC(CC(C3)C1)C2` as the compound, how does the IC50 [10] read?
A: > 50 µM (not active)

Q: And the IC50 [9]?
A: 1.93 µM (active)

Q: With `CC(C)(C)NC(=O)C(C1CC1)n1c(=O)c(-c2ccco2)nc2ccccc21` (configuration not stated) as the compound, how does the IC50 [11] read?
A: 1.72 µM (active)

Q: Which results are given for `COc1ccc(P2(=O)Nc3ccccc3N2)cc1`?
A: EC50 [12]: > 300 µM (not active); EC50 (H4): 7.44 µM (active); IC50 [13]: 74.3 µM (inactive); EC50 [14]: 103 µM (active); EC50 [15]: 10.5 µM (active); EC50 [16]: > 120 µM (not active)

Q: Which results are given for `CN(C)c1nc(N)nc(/C(C#N)=C/C2CC3C=CC2C3)n1` (configuration not stated)?
A: IC50 [7]: 25.2 µM (inactive); IC50 [8]: 10.6 µM (active)

Q: With `COc1ccc(CCNC(=O)CSc2nc(C)nc3c2c(=O)n(C)c(=O)n3C)cc1OC` as the compound, how does the IC50 [17] read?
A: 13.9 µM (inactive)

Q: For `Cc1cc(N2CCN(C)CC2)ccc1NC(=O)c1c2c(nc3ccccc13)CCN(Cc1ccccc1)C2`, which AC50 (INS1) is on record?
A: 4.71 µM (active)

Q: What about the IC50 [2] of the same compound?
A: 11 µM (inactive)

Q: And the IC50 [18]?
A: 1.37 µM (active)

Q: What about the IC50 (Beta Lactamase) of the same compound?
A: 12.3 µM (inactive)

Q: What about the IC50 [19] of the same compound?
A: 1.05 µM (active)
